ChEMBL document CHEMBL5370535, “Thiazolyl hydrazineylidenyl indolones as unique potential multitargeting broad-spectrum antimicrobial agents” (Eur J Med Chem, 2023)
Converted amounts (≈) assume the structure as drawn.

What was measured:
Format in all cases: functional
[1] = system: Staphylococcus aureus; experiment: Antibacterial activity against methicillin-resistant Staphylococcus aureus assessed as bacterial growth inhibition incubated for 24 hrs by CLSI based two serial dilution assay
[2] = system: Pseudomonas aeruginosa; experiment: Antibacterial activity against Pseudomonas aeruginosa ATCC 27853 assessed as bacterial growth inhibition incubated for 24 hrs by CLSI based two serial dilution assay
[3] = system: Aspergillus fumigatus; experiment: Antifungal activity against Aspergillus fumigatus assessed as inhibition of fungal growth incubated for 24 hrs by CLSI based two serial dilution assay
[4] = system: Acinetobacter baumannii; experiment: Antibacterial activity against Acinetobacter baumannii assessed as bacterial growth inhibition incubated for 24 hrs by CLSI based two serial dilution assay
[5] = system: Escherichia coli; experiment: Antibacterial activity against Escherichia coli assessed as bacterial growth inhibition incubated for 24 hrs by CLSI based two serial dilution assay
[6] = system: Candida albicans; experiment: Antifungal activity against Candida albicans ATCC 90023 assessed as inhibition of fungal growth incubated for 24 hrs by CLSI based two serial dilution assay
[7] = system: Staphylococcus aureus; experiment: Antibacterial activity against Staphylococcus aureus assessed as bacterial growth inhibition incubated for 24 hrs by CLSI based two serial dilution assay
[8] = system: Pseudomonas aeruginosa; experiment: Antibacterial activity against Pseudomonas aeruginosa assessed as bacterial growth inhibition incubated for 24 hrs by CLSI based two serial dilution assay
[9] = system: Candida parapsilosis; experiment: Antifungal activity against Candida parapsilosis ATCC 22019 assessed as inhibition of fungal growth incubated for 24 hrs by CLSI based two serial dilution assay; conditions: Lodderomyces parapsilosis
[10] = system: Escherichia coli; experiment: Antibacterial activity against Escherichia coli 25922 assessed as bacterial growth inhibition incubated for 24 hrs by CLSI based two serial dilution assay
[11] = system: Klebsiella pneumoniae; experiment: Antibacterial activity against Klebsiella pneumoniae assessed as bacterial growth inhibition incubated for 24 hrs by CLSI based two serial dilution assay
[12] = system: Candida tropicalis; experiment: Antifungal activity against Candida tropicalis assessed as inhibition of fungal growth incubated for 24 hrs by CLSI based two serial dilution assay
[13] = system: Candida albicans; experiment: Antifungal activity against Candida albicans assessed as inhibition of fungal growth incubated for 24 hrs by CLSI based two serial dilution assay
[14] = system: Staphylococcus aureus; experiment: Antibacterial activity against Staphylococcus aureus 29213 assessed as bacterial growth inhibition incubated for 24 hrs by CLSI based two serial dilution assay
[15] = system: Enterococcus faecalis; experiment: Antibacterial activity against Enterococcus faecalis assessed as bacterial growth inhibition incubated for 24 hrs by CLSI based two serial dilution assay
[16] = system: Staphylococcus aureus; experiment: Antibacterial activity against Staphylococcus aureus 25923 assessed as bacterial growth inhibition incubated for 24 hrs by CLSI based two serial dilution assay

Row | Compound | MIC [1] [µM] | MIC [2] [µM] | MIC [3] [µM] | MIC [4] [µM] | MIC [5] [µM] | MIC [6] [µM] | MIC [7] [µM] | MIC [8] [µM] | MIC [9] [µM] | MIC [10] [µM] | MIC [11] [µM] | MIC [12] [µM] | MIC [13] [µM] | MIC [14] [µM] | MIC [15] [µM] | MIC [16] [µM]
1 | CCCCN1C(=O)/C(=N\Nc2nccs2)c2cc(Br)cc(Br)c21 | 1 (≈ 0.458 µg/mL) | 512 (≈ 235 µg/mL) | 512 (≈ 235 µg/mL) | 512 (≈ 235 µg/mL) | 1 (≈ 0.458 µg/mL) | 1 (≈ 0.458 µg/mL) | 16 (≈ 7.33 µg/mL) | 1 (≈ 0.458 µg/mL) | 128 (≈ 58.6 µg/mL) | 1 (≈ 0.458 µg/mL) | 0.5 (≈ 0.229 µg/mL) | 1 (≈ 0.458 µg/mL) | 0.5 (≈ 0.229 µg/mL) | 16 (≈ 7.33 µg/mL) | 0.5 (≈ 0.229 µg/mL) | 0.5 (≈ 0.229 µg/mL)
2 | CCCCN1C(=O)/C(=N\Nc2nc(C)c(C(C)=O)s2)c2ccccc21 | 512 (≈ 183 µg/mL) | 512 (≈ 183 µg/mL) | 512 (≈ 183 µg/mL) | 512 (≈ 183 µg/mL) | 512 (≈ 183 µg/mL) | 512 (≈ 183 µg/mL) | 16 (≈ 5.7 µg/mL) | 16 (≈ 5.7 µg/mL) | 512 (≈ 183 µg/mL) | 512 (≈ 183 µg/mL) | 512 (≈ 183 µg/mL) | 512 (≈ 183 µg/mL) | 512 (≈ 183 µg/mL) | 16 (≈ 5.7 µg/mL) | 512 (≈ 183 µg/mL) | 512 (≈ 183 µg/mL)
3 | CCCCN1C(=O)/C(=N\Nc2nc(C)c(C(=O)OCC)s2)c2ccccc21 | 128 (≈ 49.5 µg/mL) | 256 (≈ 98.9 µg/mL) | 128 (≈ 49.5 µg/mL) | 128 (≈ 49.5 µg/mL) | 256 (≈ 98.9 µg/mL) | 512 (≈ 198 µg/mL) | 64 (≈ 24.7 µg/mL) | 1 (≈ 0.386 µg/mL) | 256 (≈ 98.9 µg/mL) | 128 (≈ 49.5 µg/mL) | 256 (≈ 98.9 µg/mL) | 128 (≈ 49.5 µg/mL) | 512 (≈ 198 µg/mL) | 64 (≈ 24.7 µg/mL) | 256 (≈ 98.9 µg/mL) | 512 (≈ 198 µg/mL)
4 | O=C1/C(=N\Nc2nccs2)c2ccccc2N1Cc1cccc(Cl)c1 | 16 (≈ 5.9 µg/mL) | 512 (≈ 189 µg/mL) | 16 (≈ 5.9 µg/mL) | 256 (≈ 94.4 µg/mL) | 128 (≈ 47.2 µg/mL) | 128 (≈ 47.2 µg/mL) | 32 (≈ 11.8 µg/mL) | 256 (≈ 94.4 µg/mL) | 128 (≈ 47.2 µg/mL) | 256 (≈ 94.4 µg/mL) | 256 (≈ 94.4 µg/mL) | 64 (≈ 23.6 µg/mL) | 256 (≈ 94.4 µg/mL) | 16 (≈ 5.9 µg/mL) | 32 (≈ 11.8 µg/mL) | 8 (≈ 2.95 µg/mL)
5 | CCCCN1C(=O)/C(=N\Nc2nccs2)c2cc(F)ccc21 | 2 (≈ 0.637 µg/mL) | 4 (≈ 1.27 µg/mL) | 4 (≈ 1.27 µg/mL) | 1 (≈ 0.318 µg/mL) | 1 (≈ 0.318 µg/mL) | 1 (≈ 0.318 µg/mL) | 4 (≈ 1.27 µg/mL) | 1 (≈ 0.318 µg/mL) | 1 (≈ 0.318 µg/mL) | 1 (≈ 0.318 µg/mL) | 1 (≈ 0.318 µg/mL) | 4 (≈ 1.27 µg/mL) | 1 (≈ 0.318 µg/mL) | 1 (≈ 0.318 µg/mL) | 4 (≈ 1.27 µg/mL) | 4 (≈ 1.27 µg/mL)
6 | O=C1/C(=N\Nc2nccs2)c2ccccc2N1Cc1cccc(F)c1 | 64 (≈ 22.6 µg/mL) | 128 (≈ 45.1 µg/mL) | 128 (≈ 45.1 µg/mL) | 256 (≈ 90.2 µg/mL) | 512 (≈ 180 µg/mL) | 32 (≈ 11.3 µg/mL) | 4 (≈ 1.41 µg/mL) | 128 (≈ 45.1 µg/mL) | 32 (≈ 11.3 µg/mL) | 256 (≈ 90.2 µg/mL) | 256 (≈ 90.2 µg/mL) | 16 (≈ 5.64 µg/mL) | 64 (≈ 22.6 µg/mL) | 4 (≈ 1.41 µg/mL) | 8 (≈ 2.82 µg/mL) | 16 (≈ 5.64 µg/mL)
7 | O=C1/C(=N\Nc2nccs2)c2ccccc2N1Cc1ccccc1Cl | 8 (≈ 2.95 µg/mL) | 512 (≈ 189 µg/mL) | 16 (≈ 5.9 µg/mL) | 512 (≈ 189 µg/mL) | 256 (≈ 94.4 µg/mL) | 4 (≈ 1.48 µg/mL) | 8 (≈ 2.95 µg/mL) | 32 (≈ 11.8 µg/mL) | 4 (≈ 1.48 µg/mL) | 256 (≈ 94.4 µg/mL) | 512 (≈ 189 µg/mL) | 16 (≈ 5.9 µg/mL) | 16 (≈ 5.9 µg/mL) | 64 (≈ 23.6 µg/mL) | 32 (≈ 11.8 µg/mL) | 64 (≈ 23.6 µg/mL)
8 | CCCCN1C(=O)/C(=N\Nc2nc(-c3ccc(F)cc3F)cs2)c2ccccc21 | 512 (≈ 211 µg/mL) | 512 (≈ 211 µg/mL) | 512 (≈ 211 µg/mL) | 512 (≈ 211 µg/mL) | 512 (≈ 211 µg/mL) | 512 (≈ 211 µg/mL) | 4 (≈ 1.65 µg/mL) | 2 (≈ 0.825 µg/mL) | 512 (≈ 211 µg/mL) | 512 (≈ 211 µg/mL) | 512 (≈ 211 µg/mL) | 512 (≈ 211 µg/mL) | 512 (≈ 211 µg/mL) | 4 (≈ 1.65 µg/mL) | 512 (≈ 211 µg/mL) | 512 (≈ 211 µg/mL)
9 | O=C1/C(=N\Nc2nccs2)c2ccccc2N1Cc1ccc(F)cc1 | 128 (≈ 45.1 µg/mL) | 4 (≈ 1.41 µg/mL) | 128 (≈ 45.1 µg/mL) | 16 (≈ 5.64 µg/mL) | 16 (≈ 5.64 µg/mL) | 128 (≈ 45.1 µg/mL) | 64 (≈ 22.6 µg/mL) | 16 (≈ 5.64 µg/mL) | 64 (≈ 22.6 µg/mL) | 16 (≈ 5.64 µg/mL) | 16 (≈ 5.64 µg/mL) | 32 (≈ 11.3 µg/mL) | 32 (≈ 11.3 µg/mL) | 4 (≈ 1.41 µg/mL) | 2 (≈ 0.705 µg/mL) | 4 (≈ 1.41 µg/mL)
10 | O=C1/C(=N\Nc2nccs2)c2ccccc2N1Cc1ccccc1F | 8 (≈ 2.82 µg/mL) | 512 (≈ 180 µg/mL) | 128 (≈ 45.1 µg/mL) | 512 (≈ 180 µg/mL) | 512 (≈ 180 µg/mL) | 128 (≈ 45.1 µg/mL) | 4 (≈ 1.41 µg/mL) | 256 (≈ 90.2 µg/mL) | 128 (≈ 45.1 µg/mL) | 256 (≈ 90.2 µg/mL) | 512 (≈ 180 µg/mL) | 16 (≈ 5.64 µg/mL) | 64 (≈ 22.6 µg/mL) | 256 (≈ 90.2 µg/mL) | 8 (≈ 2.82 µg/mL) | 4 (≈ 1.41 µg/mL)
11 | CCCCN1C(=O)/C(=N\Nc2nccs2)c2ccc(F)cc21 | 4 (≈ 1.27 µg/mL) | 2 (≈ 0.637 µg/mL) | 2 (≈ 0.637 µg/mL) | 1 (≈ 0.318 µg/mL) | 2 (≈ 0.637 µg/mL) | 4 (≈ 1.27 µg/mL) | 4 (≈ 1.27 µg/mL) | 1 (≈ 0.318 µg/mL) | 1 (≈ 0.318 µg/mL) | 4 (≈ 1.27 µg/mL) | 2 (≈ 0.637 µg/mL) | 32 (≈ 10.2 µg/mL) | 2 (≈ 0.637 µg/mL) | 4 (≈ 1.27 µg/mL) | 32 (≈ 10.2 µg/mL) | 4 (≈ 1.27 µg/mL)
